These results are taken from ChEMBL document CHEMBL3091325, “New aminopyrimidine derivatives as inhibitors of the TAM family” (Eur J Med Chem, 2013).

Test [1] addresses Hepatocyte growth factor receptor (Homo sapiens) (UniProt P08581). The experiment in a line: Inhibition of Met (unknown origin) at 1 uM relative to control.
Test [2] shares this target. Description: Inhibition of Met (unknown origin) at 0.5 uM relative to control.
Test [3] deals with T1, Tyrosine-protein kinase Mer (Homo sapiens) (UniProt Q12866).
T1 sequence (whole entry): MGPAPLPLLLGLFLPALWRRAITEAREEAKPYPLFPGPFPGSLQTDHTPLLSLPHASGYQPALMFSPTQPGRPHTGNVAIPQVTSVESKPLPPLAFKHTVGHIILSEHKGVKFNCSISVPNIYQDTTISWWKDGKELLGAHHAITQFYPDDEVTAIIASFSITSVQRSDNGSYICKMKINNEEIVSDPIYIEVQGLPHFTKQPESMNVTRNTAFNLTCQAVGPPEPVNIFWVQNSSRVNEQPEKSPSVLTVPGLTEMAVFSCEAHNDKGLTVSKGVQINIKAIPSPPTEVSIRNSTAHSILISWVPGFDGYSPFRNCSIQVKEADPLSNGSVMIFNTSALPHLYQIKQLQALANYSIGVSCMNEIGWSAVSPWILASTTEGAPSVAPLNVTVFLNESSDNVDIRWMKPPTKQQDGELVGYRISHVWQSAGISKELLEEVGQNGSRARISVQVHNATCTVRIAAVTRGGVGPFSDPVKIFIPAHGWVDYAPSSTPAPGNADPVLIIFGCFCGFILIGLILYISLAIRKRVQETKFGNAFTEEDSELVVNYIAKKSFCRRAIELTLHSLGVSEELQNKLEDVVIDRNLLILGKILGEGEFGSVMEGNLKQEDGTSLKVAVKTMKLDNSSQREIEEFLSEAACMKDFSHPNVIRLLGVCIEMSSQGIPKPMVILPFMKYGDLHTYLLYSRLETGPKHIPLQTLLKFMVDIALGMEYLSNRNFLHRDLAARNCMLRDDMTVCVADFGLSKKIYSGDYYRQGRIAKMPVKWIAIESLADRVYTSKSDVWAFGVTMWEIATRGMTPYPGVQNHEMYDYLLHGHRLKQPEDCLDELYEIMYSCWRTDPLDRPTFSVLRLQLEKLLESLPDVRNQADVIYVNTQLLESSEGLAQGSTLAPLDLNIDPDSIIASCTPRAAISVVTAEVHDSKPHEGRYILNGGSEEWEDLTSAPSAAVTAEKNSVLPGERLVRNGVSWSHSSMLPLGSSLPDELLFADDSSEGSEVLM
The experiment in a line: Inhibition of Mer (unknown origin) at 1 uM relative to control.

For test [4], the target named is Tyrosine-protein kinase ABL1 (Homo sapiens) (UniProt P00519). Description: Inhibition of phosphorylated form of Abl1 (unknown origin) at 1 uM relative to control.
Test [5] concerns the target Tyrosine-protein kinase receptor UFO (Homo sapiens) (UniProt P30530). The experiment in a line: Inhibition of Axl (unknown origin) at 1 uM relative to control.
In test [6] the target is Tyrosine-protein kinase ABL1 (Homo sapiens) (UniProt P00519). Description: Inhibition of non-phosphorylated form of Abl1 (unknown origin) at 0.5 uM relative to control.
Test [7] shares this target. The experiment in a line: Inhibition of phosphorylated form of Abl1 (unknown origin) at 75 uM relative to control.
Test [8] deals with Tyrosine-protein kinase receptor UFO (Homo sapiens) (UniProt P30530). Description: Inhibition of Axl (unknown origin) at 75 uM relative to control.
In test [9] the target is T1, Tyrosine-protein kinase Mer (Homo sapiens). The experiment in a line: Inhibition of Mer (unknown origin) at 75 uM relative to control.
The target in test [10] is Tyrosine-protein kinase ABL1 (Homo sapiens) (UniProt P00519). Description: Inhibition of non-phosphorylated form of Abl1 (unknown origin) at 1 uM relative to control.
Test [11] has as its target T2, Tyrosine-protein kinase receptor TYRO3 (Homo sapiens) (UniProt Q06418).
T2 sequence (whole entry): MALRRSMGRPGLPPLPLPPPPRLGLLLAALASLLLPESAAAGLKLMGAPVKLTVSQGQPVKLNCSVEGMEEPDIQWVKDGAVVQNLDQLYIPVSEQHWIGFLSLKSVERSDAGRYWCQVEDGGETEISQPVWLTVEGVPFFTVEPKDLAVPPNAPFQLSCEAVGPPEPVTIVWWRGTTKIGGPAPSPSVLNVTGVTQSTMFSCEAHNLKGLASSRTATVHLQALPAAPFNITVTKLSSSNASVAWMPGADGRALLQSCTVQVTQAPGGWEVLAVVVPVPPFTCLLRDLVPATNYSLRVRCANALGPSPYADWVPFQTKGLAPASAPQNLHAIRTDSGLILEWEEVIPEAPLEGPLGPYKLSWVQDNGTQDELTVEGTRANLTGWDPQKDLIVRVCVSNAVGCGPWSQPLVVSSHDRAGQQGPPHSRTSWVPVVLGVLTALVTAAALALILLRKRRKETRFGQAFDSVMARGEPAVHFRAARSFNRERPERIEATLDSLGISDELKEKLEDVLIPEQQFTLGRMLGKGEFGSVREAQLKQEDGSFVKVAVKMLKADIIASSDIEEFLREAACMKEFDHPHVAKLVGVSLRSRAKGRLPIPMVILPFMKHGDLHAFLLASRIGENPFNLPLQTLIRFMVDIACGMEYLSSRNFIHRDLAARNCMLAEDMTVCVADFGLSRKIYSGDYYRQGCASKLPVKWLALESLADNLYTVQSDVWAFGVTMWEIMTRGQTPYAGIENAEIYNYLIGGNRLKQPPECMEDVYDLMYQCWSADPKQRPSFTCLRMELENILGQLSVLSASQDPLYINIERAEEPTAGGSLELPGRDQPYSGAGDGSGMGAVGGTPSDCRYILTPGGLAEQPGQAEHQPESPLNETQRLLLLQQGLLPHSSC
Description: Inhibition of recombinant human Tyro3 kinase domain using poly (Glu, Ala, Tyr) as substrate at 0.5 uM after 1.5 hrs by ELISA relative to control.

For test [12], the target named is Fibroblast growth factor receptor 3 (Homo sapiens) (UniProt P22607). The experiment in a line: Inhibition of FGFR3 (unknown origin) at 75 uM relative to control.
The target in test [13] is Tyrosine-protein kinase ABL1 (Homo sapiens) (UniProt P00519). Description: Inhibition of non-phosphorylated form of Abl1 (unknown origin) at 75 uM relative to control.
In test [14] the target is T2, Tyrosine-protein kinase receptor TYRO3 (Homo sapiens). The experiment in a line: Inhibition of recombinant human Tyro3 kinase domain using poly (Glu, Ala, Tyr) as substrate at 75 uM after 1.5 hrs by ELISA relative to control. (ELISA stands for enzyme-linked immunosorbent assay.)
The target in test [15] is Fibroblast growth factor receptor 3 (Homo sapiens) (UniProt P22607). The experiment in a line: Inhibition of FGFR3 (unknown origin) at 0.5 uM relative to control.
For test [16], the target named is T2, Tyrosine-protein kinase receptor TYRO3 (Homo sapiens). The experiment in a line: Inhibition of recombinant human Tyro3 kinase domain using poly (Glu, Ala, Tyr) as substrate at 1 uM after 1.5 hrs by ELISA relative to control.
The target of test [17] is Fibroblast growth factor receptor 3 (Homo sapiens) (UniProt P22607). The experiment in a line: Inhibition of FGFR3 (unknown origin) at 1 uM relative to control.
For test [18], the target named is T1, Tyrosine-protein kinase Mer (Homo sapiens). Description: Inhibition of Mer (unknown origin) at 0.5 uM relative to control.
Test [19] has as its target Hepatocyte growth factor receptor (Homo sapiens) (UniProt P08581). Description: Inhibition of Met (unknown origin) at 75 uM relative to control.
Test [20] addresses Tyrosine-protein kinase ABL1 (Homo sapiens) (UniProt P00519). Description: Inhibition of phosphorylated form of Abl1 (unknown origin) at 0.5 uM relative to control.
The target in test [21] is Tyrosine-protein kinase receptor UFO (Homo sapiens) (UniProt P30530). Description: Inhibition of Axl (unknown origin) at 0.5 uM relative to control.

Hepatocyte growth factor receptor (Homo sapiens), sequence (P08581 whole entry): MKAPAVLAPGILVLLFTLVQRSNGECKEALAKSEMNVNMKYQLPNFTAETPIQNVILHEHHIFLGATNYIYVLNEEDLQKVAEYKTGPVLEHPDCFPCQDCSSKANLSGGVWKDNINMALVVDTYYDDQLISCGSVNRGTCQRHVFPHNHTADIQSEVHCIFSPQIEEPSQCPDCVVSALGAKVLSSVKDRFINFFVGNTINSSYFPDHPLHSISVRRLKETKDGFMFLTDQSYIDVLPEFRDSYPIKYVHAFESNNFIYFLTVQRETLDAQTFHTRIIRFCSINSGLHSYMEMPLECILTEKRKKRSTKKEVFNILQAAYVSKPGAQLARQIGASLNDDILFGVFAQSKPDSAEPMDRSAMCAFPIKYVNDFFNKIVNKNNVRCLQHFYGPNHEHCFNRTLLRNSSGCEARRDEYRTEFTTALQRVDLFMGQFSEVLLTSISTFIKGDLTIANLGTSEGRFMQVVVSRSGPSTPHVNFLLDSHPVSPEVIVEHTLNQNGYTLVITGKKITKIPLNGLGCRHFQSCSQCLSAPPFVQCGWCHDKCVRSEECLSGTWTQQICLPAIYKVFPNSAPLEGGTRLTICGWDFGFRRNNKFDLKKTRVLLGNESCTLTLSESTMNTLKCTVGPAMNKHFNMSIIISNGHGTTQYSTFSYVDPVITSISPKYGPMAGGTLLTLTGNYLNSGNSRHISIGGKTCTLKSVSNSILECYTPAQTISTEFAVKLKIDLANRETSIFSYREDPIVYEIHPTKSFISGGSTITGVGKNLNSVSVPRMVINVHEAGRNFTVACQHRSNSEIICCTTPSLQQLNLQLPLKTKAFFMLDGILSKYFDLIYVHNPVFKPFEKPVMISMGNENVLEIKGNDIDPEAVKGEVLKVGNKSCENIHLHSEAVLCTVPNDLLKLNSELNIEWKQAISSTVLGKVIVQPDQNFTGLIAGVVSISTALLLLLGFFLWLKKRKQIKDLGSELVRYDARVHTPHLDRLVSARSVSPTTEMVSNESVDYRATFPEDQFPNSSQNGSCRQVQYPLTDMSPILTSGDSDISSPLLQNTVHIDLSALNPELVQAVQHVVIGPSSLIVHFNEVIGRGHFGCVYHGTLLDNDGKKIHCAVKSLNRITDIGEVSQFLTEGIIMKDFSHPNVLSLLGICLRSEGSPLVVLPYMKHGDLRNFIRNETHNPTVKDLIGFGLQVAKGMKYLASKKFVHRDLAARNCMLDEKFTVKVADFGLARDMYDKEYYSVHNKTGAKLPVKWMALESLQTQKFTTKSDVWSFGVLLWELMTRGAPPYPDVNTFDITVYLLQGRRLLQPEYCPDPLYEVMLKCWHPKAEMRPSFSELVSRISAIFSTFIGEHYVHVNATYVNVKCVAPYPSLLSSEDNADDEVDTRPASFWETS
Tyrosine-protein kinase receptor UFO (Homo sapiens), sequence (P30530 whole entry): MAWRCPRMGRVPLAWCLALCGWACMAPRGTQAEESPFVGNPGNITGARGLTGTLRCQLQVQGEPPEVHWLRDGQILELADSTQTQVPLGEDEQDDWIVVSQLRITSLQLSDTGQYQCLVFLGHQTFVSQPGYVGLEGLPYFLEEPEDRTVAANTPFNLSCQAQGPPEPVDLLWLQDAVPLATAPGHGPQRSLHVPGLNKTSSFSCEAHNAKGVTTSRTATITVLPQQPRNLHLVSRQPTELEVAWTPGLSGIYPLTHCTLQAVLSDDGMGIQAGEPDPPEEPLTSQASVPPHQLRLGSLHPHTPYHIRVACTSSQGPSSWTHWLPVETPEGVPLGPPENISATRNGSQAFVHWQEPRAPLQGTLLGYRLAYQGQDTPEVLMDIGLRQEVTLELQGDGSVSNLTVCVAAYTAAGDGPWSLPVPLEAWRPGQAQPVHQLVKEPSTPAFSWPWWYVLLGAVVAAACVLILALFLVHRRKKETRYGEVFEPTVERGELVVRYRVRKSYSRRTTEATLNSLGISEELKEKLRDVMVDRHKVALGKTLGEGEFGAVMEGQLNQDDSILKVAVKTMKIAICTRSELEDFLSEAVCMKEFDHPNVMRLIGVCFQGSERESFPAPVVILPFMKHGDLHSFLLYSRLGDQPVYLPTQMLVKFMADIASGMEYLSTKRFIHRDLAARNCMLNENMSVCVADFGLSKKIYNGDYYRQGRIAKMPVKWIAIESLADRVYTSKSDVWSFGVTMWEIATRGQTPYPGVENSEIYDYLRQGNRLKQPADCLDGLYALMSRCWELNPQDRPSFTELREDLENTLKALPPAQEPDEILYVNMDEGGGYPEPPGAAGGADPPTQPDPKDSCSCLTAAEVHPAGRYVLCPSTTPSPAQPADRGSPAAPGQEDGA
Fibroblast growth factor receptor 3 (Homo sapiens), sequence (P22607 23-806 limits assumed): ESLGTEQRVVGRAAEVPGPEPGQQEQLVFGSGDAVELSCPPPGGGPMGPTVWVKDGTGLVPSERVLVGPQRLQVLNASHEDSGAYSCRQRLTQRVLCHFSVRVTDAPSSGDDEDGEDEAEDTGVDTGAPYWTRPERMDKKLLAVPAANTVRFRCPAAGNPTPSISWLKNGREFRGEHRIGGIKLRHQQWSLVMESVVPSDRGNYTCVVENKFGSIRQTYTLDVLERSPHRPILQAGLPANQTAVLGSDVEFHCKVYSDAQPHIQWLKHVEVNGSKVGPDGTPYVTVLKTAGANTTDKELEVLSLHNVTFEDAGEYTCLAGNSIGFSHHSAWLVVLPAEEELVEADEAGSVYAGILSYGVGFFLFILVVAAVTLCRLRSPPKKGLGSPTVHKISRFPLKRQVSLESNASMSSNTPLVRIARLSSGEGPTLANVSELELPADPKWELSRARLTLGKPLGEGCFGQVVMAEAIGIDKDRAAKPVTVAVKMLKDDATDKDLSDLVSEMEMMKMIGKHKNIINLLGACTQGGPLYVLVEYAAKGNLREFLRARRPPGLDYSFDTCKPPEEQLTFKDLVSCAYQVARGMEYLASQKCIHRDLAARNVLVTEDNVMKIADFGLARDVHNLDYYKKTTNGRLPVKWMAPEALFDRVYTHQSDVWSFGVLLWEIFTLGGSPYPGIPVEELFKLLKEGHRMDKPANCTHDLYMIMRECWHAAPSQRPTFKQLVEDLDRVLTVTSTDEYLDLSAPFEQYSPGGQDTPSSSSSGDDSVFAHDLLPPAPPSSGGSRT
Tyrosine-protein kinase ABL1 (Homo sapiens), sequence (P00519 whole entry, the tested form may be a part): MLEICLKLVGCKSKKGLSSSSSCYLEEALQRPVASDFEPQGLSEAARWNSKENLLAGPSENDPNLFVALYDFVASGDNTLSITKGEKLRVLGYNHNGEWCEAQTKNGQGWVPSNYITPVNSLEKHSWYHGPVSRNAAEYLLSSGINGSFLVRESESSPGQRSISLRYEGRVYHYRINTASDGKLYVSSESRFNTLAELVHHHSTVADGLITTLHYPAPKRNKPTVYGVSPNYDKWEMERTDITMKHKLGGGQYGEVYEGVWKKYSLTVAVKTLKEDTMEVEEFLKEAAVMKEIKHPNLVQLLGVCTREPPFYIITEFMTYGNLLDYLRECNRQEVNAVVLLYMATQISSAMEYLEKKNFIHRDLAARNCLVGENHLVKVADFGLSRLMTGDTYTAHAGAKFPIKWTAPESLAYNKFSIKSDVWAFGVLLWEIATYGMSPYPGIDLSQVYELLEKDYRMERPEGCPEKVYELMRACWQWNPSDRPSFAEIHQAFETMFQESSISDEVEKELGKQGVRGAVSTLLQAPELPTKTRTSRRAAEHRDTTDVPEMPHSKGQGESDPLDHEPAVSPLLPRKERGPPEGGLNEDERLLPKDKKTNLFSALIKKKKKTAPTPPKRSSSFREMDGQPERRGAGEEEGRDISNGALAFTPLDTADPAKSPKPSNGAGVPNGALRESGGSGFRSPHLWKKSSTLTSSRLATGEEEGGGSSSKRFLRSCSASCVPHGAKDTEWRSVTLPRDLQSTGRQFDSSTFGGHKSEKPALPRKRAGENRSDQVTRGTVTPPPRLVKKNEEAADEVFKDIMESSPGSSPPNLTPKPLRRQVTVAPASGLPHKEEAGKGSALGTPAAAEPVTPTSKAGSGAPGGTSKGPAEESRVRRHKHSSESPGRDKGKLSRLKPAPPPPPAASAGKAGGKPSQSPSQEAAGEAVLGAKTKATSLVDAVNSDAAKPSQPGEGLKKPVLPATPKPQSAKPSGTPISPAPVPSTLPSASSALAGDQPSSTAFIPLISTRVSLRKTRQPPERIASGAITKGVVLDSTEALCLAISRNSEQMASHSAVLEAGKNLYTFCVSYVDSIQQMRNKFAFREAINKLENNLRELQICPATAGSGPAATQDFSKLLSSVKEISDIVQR

The term inhibition denotes the percentage by which the read-out fell short of the control. In the case of `Nc1cc(Oc2ccc(NC(=O)c3cccn(-c4ccc(F)cc4)c3=O)cc2F)ncn1`, the inhibition in test [1] came to 98%; in test [2], 98%; in test [3] it was 93%; in [4], 0%; in test [5] it was 100%; in [6], 23%. Also, the inhibition was 39% in test [7]; 100% in test [8]; 83% in test [9]; 41% in test [10]; 77% in test [11]; 16% in test [12]. The inhibition in test [13] was 94%; in test [14], 100%; in test [15] it was 0%; in test [16] it was 94%; in test [17] it was 0%; in test [18] it was 89%. Further, the inhibition in test [19] turned out to be 98%; in [20], 0%; in test [21], 97%.

`O=C(Nc1ccc(Oc2cc(NCCN3CCOCC3)ncn2)c(F)c1)c1cccn(-c2ccc(F)cc2)c1=O`: the inhibition was found to be 99% in test [1]; 98% in test [2]; 93% in test [3]; 0% in test [4]; 99% in test [5]; 12% in [6]. Also, the inhibition in test [7] stood at 13%; in [8], 100%; in test [9], 49%; in test [10], 12%; in test [11], 50%; in test [12], 0%. The inhibition in test [13] is 71%; in [14], 75%; in test [15], 0%; in test [16] it was 63%; in [17], 0%; in test [18] it was 90%. For the same molecule, the inhibition was 99% in [19], 1% in test [20] and 95% in test [21].

As to `Cc1cc(F)ccc1-n1cccc(C(=O)Nc2ccc(Oc3cc(N)ncn3)c(F)c2)c1=O`, the inhibition in [1] was 100%; in test [2] it was 99%; in test [3], 65%; in test [4] it was 0%; in [5], 98%; in test [6], 10%. The inhibition in test [7] is 47%; in test [8], 100%; in [9], 99%; in [10], 27%; in [11], 48%; in [12], 6%. In addition, the inhibition in test [13] amounted to 98%; in [14] it was 100%; in test [15], 0%; in test [16] it was 65%; in test [17], 0%; in [18], 53%. In addition, the inhibition in [19] was 99%; in test [20], 0%; in test [21], 93%.

Turning to `Nc1cc(Oc2ccc(NC(=O)c3cccn(-c4ccc(F)cc4)c3=O)cc2)ncn1`, the inhibition in test [1] came out at 98%; in [2] it was 95%; in test [3], 82%; in test [4], 0%; in test [5] it was 95%; in test [6], 14%. The inhibition in [7] worked out at 26%; in test [8], 100%; in test [9], 100%; in test [10] it was 31%; in test [11], 41%; in test [12], 3%. For the same molecule, the inhibition in test [13] is 94%; in [14], 81%; in [15] it was 0%; in test [16], 75%; in test [17] it was 0%; in test [18], 73%. Moreover, the inhibition in test [19] was 97%; in [20], 0%; in test [21], 85%.
